Test results reported in US9867375B2, “Methods of pest control in soybean” (Syngenta Participations AG, priority 2012, dated 2018).

These molecules were tested on Euschistus heros (assay: Euschistus heros (Neotropical brown stink bug) contact/feeding activity on sprayed soybean plants). Conditions: Euschistus heros, 120 h, 50 ppm; sprayed 2 week old soybean plants, 10 N-2 nymphs; evaluation 5 days after infestation on mortality and growth effects.
Assay type: in vivo
Protocol: Euschistus heros (Neotropical brown stink bug) (contact/feeding activity) 2 week old soybean plants are sprayed in a turn table spray chamber with the diluted spray solutions. After drying, 2 soybean seeds are added and plants are infested with 10 N-2 nymphs of the neotropical brown stink bug Euschistus heros in plastic test boxes. Boxes are incubated in a climate chamber at 25° C. and 60% RH. Evaluation is done 5 days after infestation on mortality and growth effects.
With CC(C)C(=O)NCc1ccc(C2=NOC(c3cc(Cl)cc(Cl)c3)(C(F)(F)F)C2)cc1Cl (stereo not drawn) [Compound A2] the pest or weed control at 50 ppm was ≥ 50%.
With CC(=O)NCc1ccc(N2CCC(c3cc(Cl)cc(Cl)c3)(C(F)(F)F)C2)cc1C (stereo not drawn) [Compound A4, N-{4-[3-(3,5-dichlorophenyl)-3-(trifluoromethyl)pyrrolidin1-yl]-2-methyl-benzyl)acetamide] the pest or weed control at 50 ppm was ≥ 50%.
With CC(=O)NCc1ccc(C2=NCC(c3cc(Cl)cc(Cl)c3)(C(F)(F)F)C2)cc1Br (stereo not drawn) [Compound A5, N-{2-bromo-4-[4-(3,5-dichlorophenyl)-4-trifluoromethyl-4,5-dihydro-3H-pyrrol-2yl]-benzyl}acetamide] the pest or weed control at 50 ppm was ≥ 50%.

Same assay, conditions: low application rates; sprayed soybean plants, N-2 nymphs
With N#Cc1cc(C2=NCC(c3cc(Cl)c(Cl)c(Cl)c3)(C(F)(F)F)C2)ccc1-n1cncn1 (stereo not drawn) [Compound C2, 2-(1,2,4-triazol-1-yl)-5-[3-(3,4,5-trichlorophenyl)-3-(trifluoromethyl)-2,4-dihydropyrrol-5-yl]benzonitrile] the “control at low application rates” value was “excellent control”.
With N#Cc1cc(C2=NOC(c3cc(Cl)c(F)c(Cl)c3)(C(F)(F)F)C2)ccc1-n1cncn1 (stereo not drawn) [Compound C3] the “control at low application rates” value was “excellent control”.
In the case of N#Cc1cnn(-c2ccc(C3=NOC(c4cc(Cl)c(F)c(Cl)c4)(C(F)(F)F)C3)cc2C#N)c1 (stereo not drawn) [Compound D1], the “control at low application rates” value is reported as “excellent control”.
